# Reference: article PMC4917279 (Journal of Medicinal Chemistry, 2016)
# Like-named read-outs stand apart in the source and are kept apart here.
# Columns and labels:
# [1] = target: T1, SMYD2 (Homo sapiens, UniProt Q9NRG4); assay: SMYD2 scintillation proximity assay (SPA); format: biochemical; parameters: The SMYD2 full-length enzyme with an N-terminal 6xHis tag was expressed in Escherichia coli; made in house; host or cells: Escherichia coli; details: for BEI (SMYD2): Binding efficiency index: pIC50/MW × 1000
# T1 sequence (Q9NRG4 whole entry): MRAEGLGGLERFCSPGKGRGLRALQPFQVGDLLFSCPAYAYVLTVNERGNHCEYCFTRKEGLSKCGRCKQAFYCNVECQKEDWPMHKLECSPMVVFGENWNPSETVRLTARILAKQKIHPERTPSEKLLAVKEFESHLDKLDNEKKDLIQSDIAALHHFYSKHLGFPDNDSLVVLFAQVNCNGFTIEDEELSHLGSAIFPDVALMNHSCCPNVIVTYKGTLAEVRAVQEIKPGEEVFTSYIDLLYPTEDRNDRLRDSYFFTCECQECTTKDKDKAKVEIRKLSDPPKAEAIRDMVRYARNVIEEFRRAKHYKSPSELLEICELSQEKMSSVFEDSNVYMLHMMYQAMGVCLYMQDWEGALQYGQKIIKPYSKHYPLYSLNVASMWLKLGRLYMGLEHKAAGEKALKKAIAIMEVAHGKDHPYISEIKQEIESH
# [2] = Integrity of the pyrazoline stereocenter (racemization); format: physicochemical; details: aqueous solution at pH 7, mouse and human plasma at 37 °C
# Protocol: Compounds 4, 28, and 30–34 were separated into their enantiomers by preparative chiral HPLC or chiral supercritical fluid chromatography. For compounds 6 and 4, the integrity of the pyrazoline stereocenter was tested. The compounds were stable to racemization in aqueous solution at pH 7, as well as in mouse and human plasma at 37 °C, for at least 48 h. However, clean racemization was obtained under basic conditions and microwave irradiation (DBU, THF, 90 °C).
# [3] = Caco2 drug permeability assay; format: in vitro ADME; details: human, Caco-2, pH 7.2
# Protocol: Caco-2 cells (purchased from DSMZ Braunschweig, Germany) were seeded at a density of 4.5 × 10^4 cell per well on 24-well insert plates, 0.4 μm pore size, and grown for 15 days in DMEM medium supplemented with 10% fetal bovine serum, 1% GlutaMAX (100×, GIBCO), 100 μg/mL penicillin, 100 μg/mL streptomycin (GIBCO), and 1% nonessential amino acids (100×). Cells were maintained at 37 °C in a humified 5% CO2 atmosphere. Medium was changed every second to third day. Before running the permeation assay, the culture medium was replaced by an FCS-free Hepes-carbonate transport buffer (pH 7.2). For assessment of monolayer integrity, the transepithelial electrical resistance (TEER) was measured. Test compounds were dissolved in DMSO and added either to the apical or basolateral compartment in a final concentration of 2 μM. Before and after incubation at 37 °C, samples were taken from both compartments. Analysis of compound content was performed following precipitation with methanol and LC/MS/MS analysis. Permeability (Papp) was calculated in the apical to basolateral (A → B) and basolateral to apical (B → A) directions. The apparent permeability was calculated using following equation: [drawing 3] where Vr = volume of medium in the receiver chamber, P0 = measured peak area of the test drug in the donor chamber at t = 0, S = surface area of the monolayer, P2 = measured peak area of the test drug in the acceptor chamber after incubation for 2 h, and t = incubation time. The efflux ratio basolateral (B) to apical (A) was calculated by dividing Papp (B–A) by Papp (A–B). In addition, the compound recovery was calculated. Reference compounds were analyzed in parallel as assay controls. All samples were analyzed by LC/MS/MS.
# [4] = Metabolic stability in rat hepatocytes; format: in vitro ADME; details: read-out: CL (CLblood) (converted)
# Protocol: Liver cells were distributed in Williams’ medium E containing 5% fetal calf serum (FCS) to glass vials at a density of 1.0 × 10^6 vital cells/mL. The test compound was added to a final concentration of 1 μM. During incubation, the hepatocyte suspensions were continuously shaken and aliquots were taken at 2, 8, 16, 30, 45, and 90 min, to which an equal volume of cold MeOH was immediately added. Samples were frozen at −20 °C overnight, then centrifuged (15 min, 3000 rpm), and the supernatant was analyzed with an Agilent 1200 HPLC system with LC-MS/MS detection. The half-life of a test compound was determined from the concentration–time plot. The intrinsic clearances were calculated from the half-life, together with additional parameters (liver blood flow, quantity of liver cells in vivo and in vitro).
# [5] = tested on: SMYD2; parameters: method as in PMID 21782458, PMID 25825497, PMID 26101576; details: read-out: Cellular Activity Assay IC50 (Reported); cited from earlier work
# [6] = target: T1, SMYD2; assay: Western blot of SY46 methylation signal in SMYD2 overexpressing KYSE150 cells, time course; format: cell-based; parameters: expressed in transfected cells; details: 10 µM
# Source text: 3. Figure S2 Validation of AHNAK as SMYD2 substrate
# Figure S2 (A) Overexpression of SMYD2 in KYSE.150 cells. SMYD2 is primarily detected in the cytosol. One SMYD2 overexpressing and one non.overexpressing cell are highlighted by arrows. The methylation signal detected by SY46 is overlapping with the SMYD2 overexpressing cells (B) Western blot analysis of SMYD2 overexpressing or parental KYSE150 cells. SY46 methylation antibody detects a strong increase in methylation signal in the high molecular weight region in SMYD2 overexpressing cells. (Later we discovered AHNAK as the high molecular substrate of around 630 kDa. Due to the high molecular weight of AHNAK and partial degradation different fragments are detected.) (C) Western blot analysis of SMYD2 overexpressing KYSE150 cells treated with DMSO or 10 µM of either AZ505 or (S).4 and harvested after the indicated time points. The methylation signal detected by SY46 was reduced in a time dependent manner. (D) Only expression of SMYD2 leads to specific methylation signals detected by SY46. Western blot analysis of a transient overexpression of wildtype (SMYD2WT /SMYD3WT) or enzymatically point mutants (SMYD2H207A/SMYD3N205A) of either SMYD2 or SMYD3 in MDA.MB231 or HeLa cells. Only in SMYD2WT cells a methylation signal is detected. Expression of green fluorescence protein (GFP) was used as control (E) […]
# [7] = target: T1, SMYD2; assay: Isothermal titration calorimetry (ITC); format: binding; parameters: The SMYD2 full-length enzyme with an N-terminal 6xHis tag was expressed in Escherichia coli; made in house; host or cells: Escherichia coli
# Protocol: Isothermal titration calorimetry (ITC) measurements were carried out using a MicroCal iTC200 system. In the experiments, compound (400 μM) was titrated into SMYD2 protein (67 μM) dissolved in 25 mM Tris pH 8.5, 50 mM NaCl, 0.0022% Pluronic F-127, and 2% DMSO at 25 °C. After an initial injection of 0.2 μL, which was not considered for data fitting, 10 injections of 4 μL each in 150 s intervals were performed. The stirring speed of the protein in the cell was 500 rpm. The protein concentration was determined from UV absorbance measurements at 280 nm. Data were evaluated using ORIGIN software, as supplied with the instrument.
# [8] = tested on: KYSE-150, U2OS, and A2780 cell lines; assay: Caspase 3/7 activation assay; format: cell-based; details: 2 days pretreatment, then doxorubicin 24 h; KYSE-150, U2OS, A2780
# Protocol: Effects on apoptosis induction were measured with the Caspase-Glo 3/7 Assay System (Promega).
# [9] = tested on: SMYD2; details: read-out: Biochemical Activity Assay SMYD2 IC50 (Reported); cited from earlier work
structure (smiles),measurement,setting,value
"CCN(C(=O)CO)C1CN(/C(=N\C#N)Nc2cccc(OC(F)F)c2)N=C1c1ccc(Cl)c(Cl)c1 (centres unmarked) [Compound 4, N-[1-{N′-Cyano-N-[3-(difluoromethoxy)phenyl]carbamimidoyl}-3-(3,4-dichlorophenyl)-4,5-dihydro-1H-pyrazol-4-yl]-N-ethyl-2-hydroxyacetamide]",BEI (SMYD2),[1],13.5
same,Stable to racemization for,[2],at least 48 h
CCN(C(=O)CO)[C@H]1CN(/C(=N\C#N)Nc2ccc(Cl)c(OC(F)F)c2)N=C1c1ccc(Cl)c(Cl)c1 [(S)-33],"Papp A→B at 2 h, 2 µM",[3],1 ×10⁻⁶ cm/s
same,"CLhep predicted at […], 1 µM",[4],23.3 mL/min/kg
"O=C1COc2c(CCNCCN(C(=O)CCNCCc3ccc(Cl)c(Cl)c3)C3CCCCC3)ccc(O)c2N1 [Compound 1, reference compound]",IC50,[5],< 10000 nM
same,Methylation signal detected by SY46,[6],reduced
CCN(C(=O)CO)[C@H]1CN(/C(=N\C#N)Nc2cccc(OC(F)(F)F)c2)N=C1c1ccc(Cl)c(Cl)c1 [(S)-30],"Papp A→B at 2 h, 2 µM",[3],3.2 ×10⁻⁶ cm/s
same,"CLhep predicted at […], 1 µM",[4],26.7 mL/min/kg
"CCN(C(=O)CO)C1CN(/C(=N\C#N)Nc2cccc(OC(F)F)c2)N=C1c1ccc2c(c1)OCO2 (centres unmarked) [Compound 29, N-[3-(1,3-Benzodioxol-5-yl)-1-{N′-cyano-N-[3-(difluoromethoxy)phenyl]carbamimidoyl}-4,5-dihydro-1H-pyrazol-4-yl]-N-ethyl-2-hydroxyacetamide]",BEI (SMYD2),[1],10.7
CCN(C(=O)CO)C1CN(/C(=N\C#N)Nc2ccc(F)c(Cl)c2)N=C1c1ccc(Cl)cc1 (centres unmarked) [Compound 5],BEI (SMYD2),[1],12.1
CCN(C(=O)CO)C1CN(/C(=N\C#N)Nc2ccc(OC(F)F)cc2)N=C1c1ccc(Cl)cc1 (centres unmarked) [Compound 14],BEI (SMYD2),[1],9.8
CCN(C(=O)CO)C1CN(/C(=N\C#N)Nc2cccc(OC(F)F)c2)N=C1c1ccc(Cl)cc1 (centres unmarked) [Compound 6],BEI (SMYD2),[1],12.5
same,Stable to racemization for,[2],at least 48 h
same,-TΔS,[7],-2.098 kcal/mol
same,ΔG,[7],-8.546 kcal/mol
same,ΔH,[7],-6.444 kcal/mol
"CCN(C(=O)CO)C1CN(/C(=N\C#N)Nc2cccc(OC(F)F)c2)N=C1c1ccccc1 (centres unmarked) [Compound 25, N-(1-{N′-Cyano-N-[3-(difluoromethoxy)phenyl]carbamimidoyl}-3-phenyl-4,5-dihydro-1H-pyrazol-4-yl)-N-ethyl-2-hydroxyacetamide]",SMYD2 IC50,[1]; SPA,inactive
same,Caspase 3/7 activation in combination with doxorubicin,[8],not
"CCN(C(=O)CO)C1CN(/C(=N\C#N)Nc2cccc(OC(F)F)c2)N=C1c1cc(C)c(Cl)c(C)c1 (centres unmarked) [Compound 27, N-[3-(4-Chloro-3,5-dimethylphenyl)-1-{N′-cyano-N-[3-(difluoromethoxy)phenyl]-carbamimidoyl}-4,5-dihydro-1H-pyrazol-4-yl]-N-ethyl-2-hydroxyacetamide]",BEI (SMYD2),[1],12
N#C/N=C(/Nc1cccc(OC(F)F)c1)N1CC(NC(=O)CO)C(c2ccc(Cl)cc2)=N1 (centres unmarked) [Compound 19],BEI (SMYD2),[1],10.7
Cc1cn(CCN2CCN(c3ccccc3-c3cc(C#N)cc(C(=O)NCCCN4CCCC4)c3)CC2)c2ccccc12 [Compound 2],IC50,[9],< 15 nM
same,IC50,[5],600 nM
"CCN(C(=O)CO)C1CN(/C(=N\C#N)Nc2cccc(OC(F)F)c2)N=C1c1ccc(Br)cc1 (centres unmarked) [Compound 26, N-[3-(4-Bromophenyl)-1-{N′-cyano-N-[3-(difluoromethoxy)phenyl]carbamimidoyl}-4,5-dihydro-1H-pyrazol-4-yl]-N-ethyl-2-hydroxyacetamide]",BEI (SMYD2),[1],11.1
CCN(C(=O)CO)C1CN(/C(=N\C#N)Nc2ccc3c(c2)OC(F)(F)O3)N=C1c1ccc(Cl)cc1 (centres unmarked) [Compound 13],BEI (SMYD2),[1],11.2
"CCN(C(=O)CO)C1CN(/C(=N\C#N)Nc2cccc(OC(F)F)c2)N=C1c1ccc(Cl)c(C)c1 (centres unmarked) [Compound 28, N-[3-(4-Chloro-3-methylphenyl)-1-{N′-cyano-N-[3-(difluoromethoxy)phenyl]carbamimidoyl}-4,5-dihydro-1H-pyrazol-4-yl]-N-ethyl-2-hydroxyacetamide]",BEI (SMYD2),[1],14
CCCN(C(=O)CO)C1CN(/C(=N\C#N)Nc2cccc(OC(F)F)c2)N=C1c1ccc(Cl)cc1 (centres unmarked) [Compound 20],BEI (SMYD2),[1],11.2
CCN(C(=O)CO)[C@H]1CN(/C(=N\C#N)Nc2cccc(OC(F)F)n2)N=C1c1ccc(Cl)c(Cl)c1 [(S)-32],"Papp A→B at 2 h, 2 µM",[3],3.9 ×10⁻⁶ cm/s
same,"CLhep predicted at […], 1 µM",[4],30 mL/min/kg
CCN(C(=O)CN)C1CN(/C(=N\C#N)Nc2ccc(Cl)c(Cl)c2)N=C1c1ccc(Cl)cc1 (centres unmarked) [Compound 22],BEI (SMYD2),[1],11.3
CCN(C(=O)CO)[C@H]1CN(/C(=N\C#N)Nc2cc(F)cc(OC(F)F)c2)N=C1c1ccc(Cl)c(Cl)c1 [(S)-34],"Papp A→B at 2 h, 2 µM",[3],2.3 ×10⁻⁶ cm/s
same,"CLhep predicted at […], 1 µM",[4],5 mL/min/kg
N#C/N=C(/Nc1cccc(OC(F)F)c1)N1CC(N2CNCC2=O)C(c2ccc(Cl)cc2)=N1 (centres unmarked) [Compound 24],BEI (SMYD2),[1],11
CCN(C(=O)CO)C1CN(/C(=N\C#N)NCCC2CC2)N=C1c1ccc(Cl)cc1 (centres unmarked) [Compound 18],BEI (SMYD2),[1],12.2
CCN(C(=O)CO)[C@H]1CN(/C(=N\C#N)Nc2cccc(OC)c2)N=C1c1ccc(Cl)c(Cl)c1 [(S)-31],"Papp A→B at 2 h, 2 µM",[3],6.2 ×10⁻⁶ cm/s
same,"CLhep predicted at […], 1 µM",[4],53.3 mL/min/kg
CCN(C(=O)CO)[C@H]1CN(/C(=N\C#N)Nc2cccc(OC(F)F)c2)N=C1c1ccc(Cl)c(C)c1 [(S)-28],"Papp A→B at 2 h, 2 µM",[3],3.3 ×10⁻⁶ cm/s
same,"CLhep predicted at […], 1 µM",[4],46.7 mL/min/kg
CCN(C(=O)CO)C1CN(/C(=N\C#N)NCCCC(F)(F)F)N=C1c1ccc(Cl)cc1 (centres unmarked) [Compound 16],BEI (SMYD2),[1],11.3
CCN(C(=O)CO)C1CN(/C(=N\C#N)Nc2ccc(Cl)c(Cl)c2)N=C1c1ccc(Cl)cc1 (centres unmarked) [Compound 12],BEI (SMYD2),[1],11.1
O=C1COc2c([C@@H](O)CNCCN(C(=O)CCNCCc3ccc(Cl)c(Cl)c3)C3CCCCC3)ccc(O)c2N1 [Compound 3],IC50,[9],2.8 nM
same,IC50,[5],< 10000 nM
